The values that follow come from patent publication US7632838B2, “11-beta HSD1 inhibitors” (Wyeth, priority 2006, dated 2009).

As a reminder, the melting point is the temperature of the solid-liquid transition. Usually IC50 stands for the concentration that inhibits the measured activity by half.

SMILES strings stand for the structures. Where only a bound is given, the exact number is not on record here.

System in the first data set: not given
Experiment: not given
Details: not given
Compound `O=C(N1CCC(Oc2c(Cl)cccc2Cl)CC1)C12CC3CC(CC(C3)C1)C2` [Example 18D, Adamantan-1-yl-[4-(2,6-dichloro-phenoxy)-piperidin-1-yl]-methanone] came in with a melting point of 191 to 199 °C.

The target in another data set is T1, human 11 b-HSD1 (Homo sapiens, UniProt P28845).
T1 construct: expressed in transfected cells
T1 sequence (P28845 whole entry): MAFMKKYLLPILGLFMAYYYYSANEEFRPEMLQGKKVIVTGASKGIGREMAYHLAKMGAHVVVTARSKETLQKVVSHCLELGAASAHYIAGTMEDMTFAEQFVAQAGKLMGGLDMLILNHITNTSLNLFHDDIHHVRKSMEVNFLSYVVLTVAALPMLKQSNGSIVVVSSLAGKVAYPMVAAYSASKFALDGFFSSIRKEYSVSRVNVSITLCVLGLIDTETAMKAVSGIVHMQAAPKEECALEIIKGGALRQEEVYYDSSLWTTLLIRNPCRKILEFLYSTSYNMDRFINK
The data set can be described thus: cell-based assay, stable CHO cell line expressing human 11 b-HSD1 (cortisone to cortisol, DiscoverX HitHunter Cortisol Assay). The note with it: 11βHSD1 inhibition; stated as 'less than about'; read-out: inhibition constant IC50. How it is done:
Compounds described herein can be tested in a cell-based assay using a stable CHO cell line expressing human 11 b-HSD1. Cells are plated at 20,000 cells/well in 96 well plates and incubated overnight (12-16 hrs) at 37° C./5% CO2. Cells are treated with different concentration of compound in 90 microliter serum-free media and incubated for 30 minutes at 37° C./5% CO2. 10 ul of 5 micromolar cortisone (final concentration 500 nM) is then added to the cells and the plate is incubated at 37° C./5% CO2 for 120 minutes. 15 microliter of media is withdrawn and amount of cortisol in the media is measured using the DiscoverX HitHunter Cortisol Assay (DiscoverX corp, CA).
For the compound `CC(C)(C)c1ccc(S(=O)(=O)N2CCN(c3ncccc3Cl)CC2)cc1` [Example 2A, 1-[(4-tert-butylphenyl)sulfonyl]-4-(3-chloropyridin-2-yl)piperazine], the IC50 was below 10 µM.

With `O=S(=O)(c1ccc2ccccc2c1)N1CCN(c2ncccc2Cl)CC1` [Example 2B, 1-(3-chloropyridin-2-yl)-4-(2-naphthylsulfonyl)piperazine], the IC50 is below 10 µM.

As to `O=S(=O)(c1ccccc1Cl)N1CCN(c2ncccc2Cl)CC1` [Example 2D, 1-[(2-chlorophenyl)sulfonyl]-4-(3-chloropyridin-2-yl)piperazine], the IC50 was below 10 µM.

As for `O=S(=O)(c1ccc(Cl)cc1)N1CCN(c2ncccc2Cl)CC1` [Example 2E, 1-[(4-chlorophenyl)sulfonyl]-4-(3-chloropyridin-2-yl)piperazine], the IC50 is below 10 µM.

Consider `Cc1ccc(S(=O)(=O)N2CCN(c3ncccc3Cl)CC2)cc1` [Example 2F, 1-(3-chloropyridin-2-yl)-4-[(4-methylphenyl)sulfonyl]piperazine], for which the IC50 is below 10 µM.

As for `COc1ccc(S(=O)(=O)N2CCN(c3ncccc3Cl)CC2)cc1` [Example 2G, 1-(3-chloropyridin-2-yl)-4-[(4-methoxyphenyl)sulfonyl]piperazine], the IC50 is below 10 µM.

As to `O=S(=O)(c1ccc(-c2ccccc2)cc1)N1CCN(c2ncccc2Cl)CC1` [Example 2H, 1-(biphenyl-4-ylsulfonyl)-4-(3-chloropyridin-2-yl)piperazine], the IC50 was below 10 µM.

With `O=S(=O)(Cc1ccccc1)N1CCN(c2ncccc2Cl)CC1` [Example 2I, 1-(benzylsulfonyl)-4-(3-chloropyridin-2-yl)piperazine], the IC50 was below 10 µM.

`O=S(=O)(c1ccc(C(F)(F)F)cc1Br)N1CCN(c2ncccc2Cl)CC1` [Example 2J, 1-{[2-bromo-4-(trifluoromethyl)phenyl]sulfonyl}-4-(3-chloropyridin-2-yl)piperazine]: the IC50 was below 10 µM.

Regarding `C[C@H]1CN(C(=O)OCc2ccccc2)C[C@H](C)N1S(=O)(=O)c1ccc(C(C)(C)C)cc1` [Example 5, Benzyl (3S,5S)-4-[(4-tert-butylphenyl)sulfonyl]-3,5-dimethylpiperazine-1-carboxylate], the IC50 is below 10 µM.

`C[C@H]1CN(c2ncccc2Cl)C[C@H](C)N1S(=O)(=O)c1ccc(C(C)(C)C)cc1` [Example 6, (2S,6S)-1-[(4-tert-butylphenyl)sulfonyl]-4-(3-chloropyridin-2-yl)-2,6-dimethylpiperazine]: the IC50 is below 10 µM.

In the case of `O=S(=O)(c1ccc2ccccc2c1)N1CCN(c2ccc(F)cc2C(F)(F)F)CC1` [Example 9F, 1-[4-fluoro-2-(trifluoromethyl)phenyl]-4-(2-naphthylsulfonyl)piperazine], the concentration for half-maximal inhibition (IC50) was below 10 µM.

As to `O=S(=O)(c1ccc(Cl)c(Cl)c1)N1CCN(c2ncccc2F)CC1` [Example 13A, 1-[(3,4-dichlorophenyl)sulfonyl]-4-(3-fluoropyridin-2-yl)piperazine], the IC50 was below 10 µM.

Consider `N#Cc1cccnc1N1CCN(S(=O)(=O)c2ccc(Cl)c(Cl)c2)CC1` [Example 13B, 2-{4-[(3,4-dichlorophenyl)sulfonyl]piperazin-1-yl}nicotinonitrile], for which the IC50 is below 10 µM.

For `O=[N+]([O-])c1cccnc1N1CCN(S(=O)(=O)c2ccc(Cl)c(Cl)c2)CC1` [Example 13C, 1-[(3,4-dichlorophenyl)sulfonyl]-4-(3-nitropyridin-2-yl)piperazine], the IC50 is below 10 µM.
